Experimental data as given in patent publication US11925195B2, “Synergistic nutritional compositions for treating cerebrovascular diseases” (CELAGENEX RESEARCH (INDIA) PVT. LTD., priority 2019, dated 2024).

How the values were obtained:
Type in all cases: in vivo, Wistar Rats
[1] = Rat feed consumption in global ischemia reperfusion study; settings: oral daily dosing (Standard 9.3 mg/kg, NBP 49.6 mg/kg, NR 31 mg/kg)
[2] = test system: Interleukin - 6; assay: Rat Interleukin-6 level after global ischemia reperfusion; settings: oral 10 days (Standard 9.3 mg/kg, NBP 49.6 mg/kg, NR 31 mg/kg); 30 mins global ischemia on 7th day, 72 hrs reperfusion; mean ± SEM, n = 6; I/R control 121.83 ± 1.65
[3] = Rat body weight in global ischemia reperfusion study; settings: mean ± SEM, n = 6; for Body Weight, Basal: male Wistar rats; for Body Weight, Week 01: oral daily dosing (Standard 9.3 mg/kg, NBP 49.6 mg/kg, NR 31 mg/kg)
[4] = test system: TNF alpha; assay: Rat TNF alpha level after global ischemia reperfusion; settings: oral 10 days (Std 9.3 mg/kg, NBP 49.6 mg/kg, NR 31 mg/kg); 30 mins global ischemia on 7th day, 72 hrs reperfusion; mean ± SEM, n = 6; I/R control 172.17 ± 6.35

Compound | Feed Consumption, Week 01 [1] | Interleukin - 6 Levels [2] | Body Weight, Basal [3] | Body Weight, Week 01 [3] | TNF alpha Level [4]
CCCCC1OC(=O)c2ccccc21 (racemic) [3-N-butylpthalide (NBP), 3-N-butylphthalide] | 99.57 ± 1.00 gm | 85.39 ± 0.62 pg/mL | 214.50 ± 1.12 gm | 224.50 ± 0.76 gm | 132.00 ± 2.34 pg/mL
NC(=O)c1ccc[n+]([C@@H]2O[C@H](CO)[C@@H](O)[C@H]2O)c1.[Cl-] [Nicotinamide Riboside chloride (NR), nicotinamide riboside chloride] | 99.71 ± 1.04 gm | 109.56 ± 0.27 pg/mL | 215.00 ± 1.46 gm | 224.83 ± 1.08 gm | 160.33 ± 4.79 pg/mL
